From patent publication US20220177485A1, “CAMPTOTHECIN DERIVATIVE, PREPARATION METHOD THEREFOR AND APPLICATION THEREOF” (MARINE BIOMEDICAL RESEARCH INSTITUTE OF QINGDAO CO., LTD., priority 2018, published 2022)
Read-outs that look alike come from different tables or passages of the source.

How the values were obtained:
[1] = test system: A549 cell non-small cell lung cancer cell line; assay: growth inhibition of tumor cells in vitro, A549; format: cell-based, human
Excerpt: (§1) We tested compounds target a variety of tumor cell for the growth inhibition to show its antitumor activity by using the method of the field technicians known. Chooses the tumor cell lines include: A549 cell non-small cell lung cancer cell line (people), K562 cells (human chronic myeloid leukemia cells), NCI-H1975 cells (non-small cell lung adenocarcinoma cancer cell), MDA-MB-231 cells (human breast cancer cells) and HCT-116 cells (human colon cancer cells).

[2] = test system: K562 cells (human chronic myeloid leukemia cells); assay: growth inhibition of tumor cells in vitro, K562; format: cell-based
Excerpt: as §1

[3] = target: T1, epidermal growth factor (EGF) (Homo sapiens, UniProt P01133); assay: macromolecular interaction on chip, EGF; format: binding; conditions: for KD EGF: compound fixed on the chip, EGF 1 μM
T1 construct: epidermal growth factor (EGF)
Description: (§2) The experimental scheme: 1. Fixed the compounds on the chip:
(§3) Mobile phase were EGF (1 μM), FGF (1 μM), HSP90 (100 nM), FKBP12 (100 nM).
(§4) Detection whether small molecule compounds combined with the provided protein of heat shock protein (HSP90), epidermal growth factor (EGF) and fibroblast growth factor (FGF); and provide relevant data of combined dynamics.

[4] = target: heat shock protein (HSP90); assay: macromolecular interaction on chip, HSP90; format: binding; conditions: compound fixed on the chip; HSP90 100 nM
Description: as §2, §3, §4

[5] = target: fibroblast growth factor (FGF); assay: macromolecular interaction on chip, FGF; format: binding; conditions: compound fixed on the chip; FGF 1 μM
Description: as §2, §3, §4

[6] = test system: NCI-H1975 cells (non-small cell lung adenocarcinoma cancer cell); assay: growth inhibition of tumor cells in vitro, NCI-H1975; format: cell-based; conditions: for IC50: Homo sapiens, NCI-H1975, read-out: IC50 NCI-H1975
Excerpt: as §1

[7] = test system: HCT-116 cells (human colon cancer cells); assay: cells; format: cell-based; conditions: Homo sapiens, HCT-116, read-out: IC50 HCT-116
Excerpt: as §1

[8] = test system: MDA-MB-231 cells (human breast cancer cells); assay: growth inhibition of tumor cells in vitro, MDA-MB-231; format: cell-based; conditions: for IC50: Homo sapiens, MDA-MB-231, read-out: IC50 MDA-MB-231
Excerpt: as §1

[9] = Homo sapiens, A549, read-out: IC50 A549, A549 cell line
[10] = Homo sapiens, A549, A549 cell line, read-out: IC50 A549
[11] = K562 cell line, read-out: IC50 K562

T1 sequence (P01133 971-1023 limits assumed, species assumed): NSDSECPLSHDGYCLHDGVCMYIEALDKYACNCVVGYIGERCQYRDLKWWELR

SMILES | KD EGF [3] | IC50 [1, 10] | KD HSP90 [4] | IC50 [2, 11] | melting point | KD FGF [5] | also measured
CC[C@@]1(O)C(=O)OCc2c1cc1n(c2=O)Cc2c-1nc1cc3c(cc1c2-c1ccc(C(C)(C)C)cc1)OCO3 [Compound 37] |  |  |  |  |  |  | IC50 [1, 9]: 387 ± 3.75 nM; IC50 ([2]; K562, read-out: IC50 K562): 785 ± 9.23 nM
CC[C@@]1(O)C(=O)OCc2c1cc1n(c2=O)Cc2c-1nc1cc3c(cc1c2CCc1ccc(N2CCOCC2)c(F)c1)OCO3 [Compound 10, 20(S)-7-(3-fluoro-4-(4-morpholino)phenethyl)-10,11-methylenedioxy-camptothecin] | No combination | 1223 ± 8.75 nM | No combination | 564 ± 9.85 nM | > 250 °C | No combination | 
CC[C@@]1(O)C(=O)OCc2c1cc1n(c2=O)Cc2c-1nc1cc3c(cc1c2-c1ccnn1C)OCO3 [Compound 30] |  |  |  |  |  |  | IC50 [6]: 37.3 ± 2.82 nM; IC50 [7]: 0.93 ± 0.08 nM; IC50 [8]: 43.4 ± 2.18 nM
CC[C@@]1(O)C(=O)OCc2c1cc1n(c2=O)Cc2c-1nc1cc3c(cc1c2/C=C/c1cccc(F)c1)OCO3 [Compound 4, 20(S)-7-(3-fluorostyryl)-10,11-methylenedioxy-camptothecin] | No combination |  | No combination |  | > 250 °C | No combination | 
CC[C@@]1(O)C(=O)OCc2c1cc1n(c2=O)Cc2c-1nc1cc3c(cc1c2CCc1ccc(N2CCOCC2)cc1)OCO3 [Compound 8, 20(S)-7-(4-(4-morpholino)phenethyl)-10,11-methylenedioxy-camptothecin] | No combination |  | No combination |  |  | No combination | 
CC[C@@]1(O)C(=O)OCc2c1cc1n(c2=O)Cc2c-1nc1cc3c(cc1c2CCc1ccc(N2CCSCC2)cc1)OCO3 [Compound 20, 20(S)-7-(4-(4-thiomorpholino)phenethyl)-10,11-methylenedioxy-camptothecin] |  |  |  | 145 ± 4.35 nM | 154 to 156 °C |  | 
CC[C@@]1(O)C(=O)OCc2c1cc1n(c2=O)Cc2c-1nc1cc3c(cc1c2CCc1cc(F)c(N2CCCC2)c(F)c1)OCO3 |  |  |  |  | > 250 °C |  | 
CC[C@@]1(O)C(=O)OCc2c1cc1n(c2=O)Cc2c-1nc1cc3c(cc1c2CCc1cc(F)c(N2CCOCC2)c(F)c1)OCO3 [Compound 18, 20(S)-7-(3,5-difluoro-4-(4-morpholino)phenethyl)-10,11-methylenedioxy-camptothecin] |  |  |  | 489 ± 6.65 nM | 246 to 247 °C |  | 
CC[C@@]1(O)C(=O)OCc2c1cc1n(c2=O)Cc2c-1nc1cc3c(cc1c2-c1cccs1)OCO3 [Compound 26, 20(S)-7-(thiophene-2-yl)-10,11-methylenedioxy-camptothecin] |  |  |  |  |  |  | IC50 [6]: 0.36 ± 0.06 nM; ranking of activity in NCI-H1975 ([6]; among Table 2 compounds): best activities; IC50 [7]: 102 ± 6.18 nM; IC50 [8]: 0.56 ± 0.03 nM; ranking of activity in MDA-MB-231 ([8]; among Table 2 compounds): best activities
CC[C@@]1(O)C(=O)OCc2c1cc1n(c2=O)Cc2c-1nc1cc3c(cc1c2N1CCOCC1)OCO3 [Compound 43, 20(S)-7-morpholino-10,11-methylenedioxy-camptothecin] |  |  |  |  | > 250 °C |  | IC50 ([2]; K562, read-out: IC50 K562): 837 ± 9.44 nM
CC[C@@]1(O)C(=O)OCc2c1cc1n(c2=O)Cc2c-1nc1cc3c(cc1c2/C=C/c1ccccc1F)OCO3 [Compound 5, 20(S)-7-(2-fluorostyryl)-10,11-methylenedioxy-camptothecin] | No combination |  | No combination |  | > 250 °C | No combination | 
CC[C@@]1(O)C(=O)OCc2c1cc1n(c2=O)Cc2c-1nc1cc3c(cc1c2/C=C/C=C/c1ccccc1)OCO3 [Compound 1, 20(S)-7-(styrene-butadiene-yl)-10,11-methylenedioxy-camptothecin] | No combination | 763 ± 5.05 nM | No combination | 1652 ± 10.6 nM | 206 to 214 °C | No combination | 
CC[C@@]1(O)C(=O)OCc2c1cc1n(c2=O)Cc2c-1nc1cc3c(cc1c2/C=C/c1ccc(F)cc1)OCO3 [Compound 3, 20(S)-7-(4-fluorostyryl)-10,11-methylenedioxy-camptothecin] | can combine |  | No combination | 66 ± 3.65 nM | > 250 °C | No combination | Kd [3]: 5.3 nM
CC[C@@]1(O)C(=O)OCc2c1cc1n(c2=O)Cc2c-1nc1cc3c(cc1c2-c1ccccc1F)OCO3 [Compound 41] |  |  |  |  |  |  | IC50 ([2]; K562, read-out: IC50 K562): 1037 ± 10.2 nM
CC[C@@]1(O)C(=O)OCc2c1cc1n(c2=O)Cc2c-1nc1cc3c(cc1c2CCc1cccc(N2CCOCC2)c1)OCO3 [Compound 14] | No combination | 10 to 50 nM | No combination | 1949 ± 15.7 nM | 163 to 165 °C | No combination | IC50 ([1]; A549 cell line, read-out: IC50 A549): 19 ± 3.47 nM
CC[C@@]1(O)C(=O)OCc2c1cc1n(c2=O)Cc2c-1nc1cc3c(cc1c2CCc1ccc(N2CCCC2)cc1)OCO3 [Compound 9, 20(S)-7-(4-(pyrrolidin-1-yl)phenethyl)-10,11-methylenedioxy-camptothecin] | No combination | 1522 ± 10.5 nM | No combination | 1366 ± 12.5 nM | 205 to 207 °C | No combination | 
CC[C@@]1(O)C(=O)OCc2c1cc1n(c2=O)Cc2c-1nc1cc3c(cc1c2-c1ccc(F)cc1)OCO3 [Compound 32] | No combination |  | No combination | 963 ± 7.61 nM |  | No combination | 
CC[C@@]1(O)C(=O)OCc2c1cc1n(c2=O)Cc2c-1nc1cc3c(cc1c2-c1cc(C(F)(F)F)cc(C(F)(F)F)c1)OCO3 [Compound 33] |  | 174 ± 8.62 nM |  | 702 ± 8.87 nM |  |  | 
CC[C@@]1(O)C(=O)OCc2c1cc1n(c2=O)Cc2c-1nc1cc3c(cc1c2-c1cnn(C2CCCCO2)c1)OCO3 (some centres unmarked) [Compound 28] |  |  |  |  |  |  | IC50 [6]: 7.97 ± 0.52 nM; IC50 [7]: 0.78 ± 0.06 nM; IC50 [8]: 1.56 ± 0.14 nM
CC[C@@]1(O)C(=O)OCc2c1cc1n(c2=O)Cc2c-1nc1cc3c(cc1c2/C=C/C=C/c1ccc(OC)cc1)OCO3 [Compound 2] | No combination | 1268 ± 4.65 nM | No combination | 2693 ± 9.63 nM |  | No combination | 
CC[C@@]1(O)C(=O)OCc2c1cc1n(c2=O)Cc2c-1nc1cc3c(cc1c2CCN1CCCCC1)OCO3 [Compound 52, 20(S)-7-(2-(piperidin-1-yl)ethyl)-10,11-methylenedioxy-camptothecin] | No combination |  | No combination |  |  | can combine | Kd [5]: 7.15 nM
CC[C@@]1(O)C(=O)OCc2c1cc1n(c2=O)Cc2c-1nc1cc3c(cc1c2-c1cccnc1)OCO3 [Compound 22, 20(S)-7-(pyridin-3-yl)-10,11-methylenedioxy-camptothecin] |  |  |  |  |  |  | IC50 [6]: 12.6 ± 2.43 nM; IC50 [7]: 0.18 ± 0.03 nM; IC50 [8]: 4.09 ± 0.46 nM
CC[C@@]1(O)C(=O)OCc2c1cc1n(c2=O)Cc2c-1nc1cc3c(cc1c2CCc1ccccc1N1CCCC1)OCO3 [Compound 16, 20(S)-7-(2-(pyrrolidin-1-yl)phenethyl)-10,11-methylenedioxy-camptothecin] |  |  |  | 115 ± 7.6 nM | 139 to 140 °C |  | 
CC[C@@]1(O)C(=O)OCc2c1cc1n(c2=O)Cc2c-1nc1cc3c(cc1c2/C=C/c1cc(F)c(F)c(F)c1)OCO3 [Compound 7] | can combine | 1904 ± 8.64 nM | No combination | 1772 ± 9.68 nM |  | can combine | Kd [3]: 51.5 nM; Kd [5]: 53.6 nM
CC[C@@]1(O)C(=O)OCc2c1cc1n(c2=O)Cc2c-1nc1cc3c(cc1c2-c1ccccc1)OCO3 [Compound 36] |  | 422 ± 10.3 nM |  | 1327 ± 8.96 nM |  |  | 
CC[C@@]1(O)C(=O)OCc2c1cc1n(c2=O)Cc2c-1nc1cc3c(cc1c2-c1ccc(F)c(F)c1)OCO3 [Compound 42] |  |  |  | 181 ± 8.55 nM |  |  | 
CC[C@@]1(O)C(=O)OCc2c1cc1n(c2=O)Cc2c-1nc1cc3c(cc1c2CCc1ccc(N2CCCCC2)cc1)OCO3 |  |  |  |  | > 250 °C |  | 
CC[C@@]1(O)C(=O)OCc2c1cc1n(c2=O)Cc2c-1nc1cc3c(cc1c2/C=C/c1ccc(F)c(F)c1)OCO3 [Compound 6] | No combination | 530 ± 7.6 nM | No combination | 757 ± 8.62 nM |  | can combine | Kd [5]: 8.99 nM
CC[C@@]1(O)C(=O)OCc2c1cc1n(c2=O)Cc2c-1nc1cc3c(cc1c2-c1ccc(F)cc1F)OCO3 [Compound 40] |  |  |  |  |  |  | IC50 [1, 9]: 836 ± 8.69 nM; IC50 ([2]; K562, read-out: IC50 K562): 1168 ± 9.69 nM
CC[C@@]1(O)C(=O)OCc2c1cc1n(c2=O)Cc2c-1nc1cc3c(cc1c2-c1ccc2c(c1)OCO2)OCO3 [Compound 38] |  |  |  |  |  |  | IC50 [1, 9]: 282 ± 7.77 nM; IC50 ([2]; K562, read-out: IC50 K562): 202 ± 7.32 nM
